# Data reported in EPA's ToxRefDB 2.
# Experiments:
# rat [1] = conditions: Sub-acute repeat dose toxicity, wistar, Oral, Gavage/Intubation, dose end: 14 day, group: systemic
# primate [2] = conditions: Sub-acute repeat dose toxicity, Oral, Gavage/Intubation, dose end: 14 day, group: systemic
# rat [3] = conditions: Sub-acute repeat dose toxicity; wistar; Oral; Gavage/Intubation; dose end: 14 day; group: systemic; systemic / in life observation / clinical signs / abnormal feces + systemic / in life observation / clinical signs / erythema + systemic / …
# rat [4] = conditions: Sub-acute repeat dose toxicity, wistar, Oral, Gavage/Intubation, dose end: 14 day, group: systemic; remark: listed apart in the source
# dog [5] = conditions: Sub-acute repeat dose toxicity, beagle, Oral, Gavage/Intubation, dose end: 28 day, group: systemic
# primate [6] = conditions: Sub-acute repeat dose toxicity, Oral, Gavage/Intubation, dose end: 28 day, group: systemic
# rat [7] = conditions: Sub-acute repeat dose toxicity, wistar, Oral, Gavage/Intubation, dose end: 28 day, group: systemic
# rabbit = conditions: Sub-acute repeat dose toxicity, Oral, Gavage/Intubation, dose end: 13 day
# primate [8] = conditions: Sub-acute repeat dose toxicity; Oral; Gavage/Intubation; dose end: 5 day; group: systemic; systemic / clinical chemistry / [other] / [other] + systemic / clinical chemistry / plasma renin activity / plasma renin activity + systemic…
# mouse [9] = conditions: Subchronic oral toxicity in rodents, cd1, Feed, dose end: 90 day, group: systemic, systemic / in life observation / body weight / body weight + systemic / in life observation / body weight / body weight gain
# mouse [10] = conditions: Carcinogenicity; cd1; Oral; Feed; dose end: 78 week; group: systemic; systemic / organ weight / spleen / nos
# rat [11] = conditions: Multigenerational reproductive toxicity study, wistar, Oral, Feed, dose end: 2 generation
# dog [12] = conditions: Chronic toxicity, beagle, Oral, [Not Specified], dose end: 52 week, group: systemic
# rat [13] = conditions: Subchronic oral toxicity in rodents, sprague dawley, Feed, dose end: 13 week, group: systemic
# dog [14] = conditions: Subchronic oral toxicity in nonrodent, beagle, Feed, dose end: 13 week, group: systemic
# rat [15] = conditions: Combined chronic toxicity/carcinogenicity, Oral, Feed, dose end: 104 week, group: systemic
# mouse [16] = conditions: Carcinogenicity, cd1, Oral, Feed, dose end: 18 month, group: systemic
# dog [17] = conditions: Subchronic oral toxicity in nonrodent, beagle, Feed, dose end: 13 week, group: systemic, systemic / in life observation / body weight / body weight gain
# rat [18] = conditions: Combined chronic toxicity/carcinogenicity, other, Oral, Feed, dose end: 24 month, group: systemic
# rat [19] = conditions: Subchronic oral toxicity in rodents, sprague dawley, Feed, dose end: 3 month, group: systemic, systemic / organ weight / liver / relative to body weight + systemic / pathology microscopic / liver / hypertrophy + systemic / pathology …
# dog [20] = conditions: Chronic toxicity, beagle, Oral, Feed, dose end: 52 week, group: systemic
# mouse [21] = conditions: Subchronic oral toxicity in rodents, cd1, Feed, dose end: 13 week, group: systemic, systemic / in life observation / body weight / body weight gain
# rat [22] = conditions: Subchronic oral toxicity in rodents, sprague dawley, Gavage/Intubation, dose end: 90 day, group: systemic
# [23] = systemic / in life observation / clinical signs / abnormal feces + systemic / in life observation / clinical signs / body cold to touch + …
# [24] = systemic / in life observation / clinical signs / body cold to touch + systemic / in life observation / clinical signs / dehydration + …
# [25] = systemic / clinical chemistry / [other] / [other] + systemic / clinical chemistry / creatinine / creatinine + systemic / in life observation…
# [26] = systemic / in life observation / body weight / body weight gain + systemic / in life observation / clinical signs / abnormal feces + …
# [27] = systemic / in life observation / clinical signs / abnormal feces + systemic / in life observation / clinical signs / salivation + systemic…
# [28] = systemic / clinical chemistry / alanine aminotransferase (alt/sgpt) / alanine aminotransferase (alt/sgpt) + systemic / clinical chemistry / …
# [29] = systemic / in life observation / body weight / body weight + systemic / pathology microscopic / kidney / atrophy + systemic / pathology …
# [30] = systemic / in life observation / clinical signs / abnormal feces + systemic / in life observation / clinical signs / dialated pupils + …
# [31] = systemic / in life observation / clinical signs / nasal discharge + systemic / in life observation / clinical signs / urine staining - …
# [32] = group: maternal, reproductive / reproductive performance / aborted / aborted + reproductive / reproductive performance / resorptions / resorptions
# [33] = group: systemic, systemic / in life observation / body weight / body weight gain
# [34] = group: systemic, systemic / in life observation / body weight / body weight gain + systemic / in life observation / body weight / body weight + systemic / in…
# [35] = group: offspring, systemic / in life observation / clinical signs / grip strength
# [36] = group: offspring, systemic / in life observation / clinical signs / grip strength + systemic / in life observation / body weight / offspring (pup) weight + …
# [37] = group: parental, systemic / in life observation / body weight / body weight gain + systemic / in life observation / food consumption / food consumption + …
# [38] = group: reproductive, reproductive / reproductive performance / estrous cycle / length
# [39] = systemic / organ weight / thymus / nos
# [40] = systemic / organ weight / thymus / nos + systemic / hematology / platelet / platelet + systemic / organ weight / testes / nos
# [41] = systemic / pathology microscopic / adrenal gland / vacuolization + systemic / clinical chemistry / cholesterol / cholesterol + systemic / …
# [42] = systemic / in life observation / body weight / body weight + systemic / in life observation / body weight / body weight gain
# [43] = systemic / in life observation / body weight / body weight + systemic / in life observation / body weight / body weight gain + systemic / …
# [44] = systemic / hematology / lymphocyte / lymphocyte + systemic / organ weight / kidney / nos + systemic / organ weight / testes / nos + systemic…
# [45] = systemic / organ weight / testes / nos
# [46] = systemic / clinical chemistry / gamma glutamyl transferase (ggt) / gamma glutamyl transferase (ggt) + systemic / clinical chemistry / …
# [47] = systemic / hematology / anemia / anemia - hemolytic + systemic / hematology / methemoglobin / methemoglobin + systemic / hematology / …
# [48] = systemic / clinical chemistry / globulins / globulins + systemic / clinical chemistry / protein / protein + systemic / hematology / …
# [49] = systemic / in life observation / body weight / body weight + systemic / in life observation / food consumption / food consumption
smiles,measurement,setting,value
Cc1cc(SC2=C(O)C[C@@](CCc3ccc(N)cc3)(C(C)C)OC2=O)c(C(C)(C)C)cc1CO [CI-1029],LOAEL,rat [1]; [23],> 5000 mg/kg/day
same,NOAEL,rat [1]; [23],≥ 5000 mg/kg/day
same,LEL,rat [1]; [24],500 mg/kg/day
same,NEL,rat [1]; [24],< 500 mg/kg/day
same,LOAEL,primate [2]; [25],> 1000 mg/kg/day
same,NOAEL,primate [2]; [25],≥ 1000 mg/kg/day
same,LEL,primate [2]; [26],100 mg/kg/day
same,NEL,primate [2]; [26],< 100 mg/kg/day
same,LEL,rat [3],2500 mg/kg/day
same,LOAEL,rat [3],> 5000 mg/kg/day
same,NEL,rat [3],1000 mg/kg/day
same,NOAEL,rat [3],≥ 5000 mg/kg/day
same,LOAEL,rat [4]; [27],> 1000 mg/kg/day
same,NEL,rat [4]; [27],250 mg/kg/day
same,NOAEL,rat [4]; [27],≥ 1000 mg/kg/day
same,LEL,rat [4]; systemic / in life observation / clinical signs / urine staining - perineum,500 mg/kg/day
same,LOAEL,dog [5]; [28],> 500 mg/kg/day
same,NOAEL,dog [5]; [28],≥ 500 mg/kg/day
same,LEL,dog [5]; [29],100 mg/kg/day
same,NEL,dog [5]; [29],< 100 mg/kg/day
same,LEL,primate [6]; systemic / in life observation / body weight / body weight + systemic / in life observation / clinical signs / abnormal feces + systemic / …,500 mg/kg/day
same,LOAEL,primate [6]; [30],> 750 mg/kg/day
same,NOAEL,primate [6]; [30],≥ 750 mg/kg/day
same,LOAEL,rat [7]; [31],> 1000 mg/kg/day
same,NEL,rat [7]; [31],100 mg/kg/day
same,NOAEL,rat [7]; [31],≥ 1000 mg/kg/day
same,LEL,rat [7]; systemic / in life observation / clinical signs / urine staining - perineum + systemic / in life observation / body weight / body weight …,500 mg/kg/day
same,LEL,rabbit; [32],250 mg/kg/day
same,LOAEL,rabbit; [32],> 500 mg/kg/day
same,NEL,rabbit; [32],100 mg/kg/day
same,NOAEL,rabbit; [32],≥ 500 mg/kg/day
same,LEL,rabbit; [33],50 mg/kg/day
same,NEL,rabbit; [33],< 50 mg/kg/day
same,LOAEL,rabbit; [34],> 500 mg/kg/day
same,NOAEL,rabbit; [34],≥ 500 mg/kg/day
same,LEL,primate [8],750 mg/kg/day
same,LOAEL,primate [8],> 750 mg/kg/day
same,NEL,primate [8],< 750 mg/kg/day
same,NOAEL,primate [8],≥ 750 mg/kg/day
CNC(=N[N+](=O)[O-])NCC1CCOC1 (stereo unspecified) [Dinotefuran],LEL,mouse [9],10600 mg/kg/day
same,LOAEL,mouse [9],10600 mg/kg/day
same,NEL,mouse [9],4440 mg/kg/day
same,NOAEL,mouse [9],4440 mg/kg/day
same,LEL,mouse [10],3 mg/kg/day
same,LOAEL,mouse [10],3 mg/kg/day
same,NEL,mouse [10],< 3 mg/kg/day
same,NOAEL,mouse [10],< 3 mg/kg/day
same,NEL,rat [11]; [35],269 mg/kg/day
same,NOAEL,rat [11]; [35],269 mg/kg/day
same,LEL,rat [11]; [36],935 mg/kg/day
same,LOAEL,rat [11]; [36],935 mg/kg/day
same,LEL,rat [11]; [37],822 mg/kg/day
same,LOAEL,rat [11]; [37],822 mg/kg/day
same,NEL,rat [11]; [37],241 mg/kg/day
same,NOAEL,rat [11]; [37],241 mg/kg/day
same,LEL,rat [11]; [38],907 mg/kg/day
same,LOAEL,rat [11]; [38],907 mg/kg/day
same,NEL,rat [11]; [38],268 mg/kg/day
same,NOAEL,rat [11]; [38],268 mg/kg/day
same,LOAEL,dog [12]; [39],20 mg/kg/day
same,NOAEL,dog [12]; [39],< 20 mg/kg/day
same,LEL,dog [12]; [40],20 mg/kg/day
same,NEL,dog [12]; [40],< 20 mg/kg/day
same,LOAEL,rat [13]; systemic / pathology microscopic / adrenal gland / vacuolization,336 mg/kg/day
same,NEL,rat [13]; [41],34 mg/kg/day
same,NOAEL,rat [13]; [41],34 mg/kg/day
same,LEL,rat [13]; systemic / pathology microscopic / adrenal gland / vacuolization + systemic / organ weight / liver / relative to body weight,336 mg/kg/day
same,LOAEL,dog [14]; [42],58 mg/kg/day
same,NOAEL,dog [14]; [42],< 58 mg/kg/day
same,LEL,dog [14]; [43],58 mg/kg/day
same,NEL,dog [14]; [43],< 58 mg/kg/day
same,NEL,rat [15]; systemic / organ weight / uterus / relative to brain weight + systemic / organ weight / brain / relative to body weight + systemic / organ …,1330 mg/kg/day
same,LOAEL,rat [15]; systemic / pathology microscopic / kidney / ulcer + systemic / pathology microscopic / kidney / dilatation,991 mg/kg/day
same,NOAEL,rat [15]; systemic / pathology microscopic / kidney / ulcer + systemic / pathology microscopic / kidney / dilatation + systemic / pathology …,99.7 mg/kg/day
COc1cccc(C(=O)NN(C(=O)c2cc(C)cc(C)c2)C(C)(C)C)c1C [Methoxyfenozide],LOAEL,mouse [16]; [44],> 1020 mg/kg/day
same,NOAEL,mouse [16]; [44],≥ 1020 mg/kg/day
same,LEL,mouse [16]; [45],10 mg/kg/day
same,NEL,mouse [16]; [45],< 10 mg/kg/day
same,LEL,dog [17],0.6 mg/kg/day
same,LOAEL,dog [17],> 198 mg/kg/day
same,NEL,dog [17],< 0.6 mg/kg/day
same,NOAEL,dog [17],≥ 198 mg/kg/day
same,LEL,rat [18]; [46],411 mg/kg/day
same,NEL,rat [18]; [46],10.2 mg/kg/day
same,LOAEL,rat [18]; systemic / in life observation / mortality / mortality + systemic / organ weight / liver / absolute + systemic / organ weight / liver / …,1040 mg/kg/day
same,LEL,rat [19],353 mg/kg/day
same,LOAEL,rat [19],353 mg/kg/day
same,NEL,rat [19],69.3 mg/kg/day
same,NOAEL,rat [19],69.3 mg/kg/day
same,LOAEL,dog [20]; [47],1150 mg/kg/day
same,NEL,dog [20]; [47],9.8 mg/kg/day
same,NOAEL,dog [20]; [47],106 mg/kg/day
same,LEL,dog [20]; systemic / hematology / platelet / platelet + systemic / hematology / erythrocyte (rbc) count differential / erythrocyte (rbc),106 mg/kg/day
same,LEL,mouse [21],1150 mg/kg/day
same,LOAEL,mouse [21],1150 mg/kg/day
same,NEL,mouse [21],428 mg/kg/day
same,NOAEL,mouse [21],428 mg/kg/day
O=C(O)C(F)(F)C(F)(F)C(F)(F)C(F)(F)C(F)(F)F [PFHxA],LOAEL,rat [22]; [48],> 200 mg/kg/day
same,NOAEL,rat [22]; [48],≥ 200 mg/kg/day
same,LEL,rat [22]; [49],10 mg/kg/day
same,NEL,rat [22]; [49],< 10 mg/kg/day
